Each block holds one sequence with its values, some of them ahead of it.
Legend:
Assay in all cases: pTyr-Var library bacterial peptide display kinase screen (enrichment scores)
[1] = molecular target: c-Src kinase domain (Homo sapiens, UniProt P12931); type: biochemical; conditions: sheet "Src";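 note: log2 fold change in enrichment of variant over reference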
[2] = system: EPHB2 kinase domain; type: biochemical, human; conditions: sheet EPHB2;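 note: log2 fold change in enrichment of variant over reference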
[3] = molecular target: T1, c-Abl kinase domain (Mus musculus, UniProt P00520); type: biochemical;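 note: log2 fold change in enrichment of variant over reference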
T1 sequence (P00520 242-493 limits assumed): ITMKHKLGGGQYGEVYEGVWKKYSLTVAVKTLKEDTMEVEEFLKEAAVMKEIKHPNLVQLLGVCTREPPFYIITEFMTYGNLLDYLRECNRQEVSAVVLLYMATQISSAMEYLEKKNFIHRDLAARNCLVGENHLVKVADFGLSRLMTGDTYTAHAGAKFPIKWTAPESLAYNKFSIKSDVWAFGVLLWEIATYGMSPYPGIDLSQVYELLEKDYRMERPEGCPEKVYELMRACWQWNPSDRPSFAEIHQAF

[4] = system: EPHB1 kinase domain; type: biochemical, human; conditions: for Screen (variant relative to reference peptide, measured in the pTyr-Var library screen): sheet "EPHB1", variant seq vs reference seq, bacterial peptide display enrichment; for Screen: sheet EPHB1, effect of the variant peptide relative to its reference peptide in the pTyr-Var library screen (enrichment scores)
[5] = system: Fer kinase domain; type: biochemical, mouse; conditions: sheet "Fer";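 note: log2 fold change in enrichment of variant over reference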
[6] = variant peptide versus its reference peptide in the pTyr-Var library screen
[7] = effect of variant peptide relative to its reference peptide in the pTyr-Var library screen (enrichment scores)
[8] = sheet "Abl", effect of variant peptide relative to its reference peptide in pTyr-Var library screen (enrichment)
[9] = effect of the variant relative to its reference peptide in the pTyr-Var library screen
[10] = variant peptide relative to its reference peptide, pTyr-Var library screen enrichment
[11] = value of the variant peptide against its reference peptide in the pTyr-Var library screen with Fer
[12] = fig5-data2, sheet "Abl", Screen for the variant/reference peptide pair, pTyr-Var library
[13] = effect of the variant peptide relative to its reference peptide in the pTyr-Var library screen

Sequence: ADARMYGDLPW [PLP1_Y207_V209D]
Screen [1, 6]: -1.273
Screen [2, 7]: -2.321

Sequence: ADARMYGVLLW [PLP1_Y207_P211L]
Screen [1, 6]: -0.7224
Screen [2, 7]: -1.961

Sequence: CFCSWYRGWAP [TIMP3_Y195_G190C_YF]
Screen [1, 6]: 2.542
Screen [5, 10]: 2.823

Sequence: DFFDLYGGEKK [PTPN11_Y66_F71K_YF]
Screen [3, 12]: 0.6551
Screen [1, 6]: -0.3154

Sequence: EEQFFYEKAIL [BCCIP_Y257_E254Q]
Screen [3, 12]: 0.5588
Screen [5, 11]: -0.4348

Sequence: EVASVYESFQP [MAVS_Y92_Q93E_YF]
Screen [1, 13]: 0.01447
Screen [5, 11]: 1.389

Sequence: EVEPTYVVLFD [ERCC4_Y577_R576T_YF]
Screen [1, 13]: 2.973
Screen [4]: 1.659
Screen [2, 7]: 2.191

Sequence: EWQQIYTFDSG [JUP_Y20_T19I_YF]
Screen [1, 13]: 0.7952
Screen [5, 11]: 3.242

Sequence: FCRITYDIFPF [INTS13_Y67_M66T_YF]
Screen [3, 12]: 1.32
Screen [1, 13]: -0.3434
Screen [4]: -0.0851
Screen [2, 7]: 0.3565

Sequence: FDAHIYEGCVI [PRKCD_Y64_R67C]
Screen [1, 6]: 0.6982
Screen [5, 11]: 2.331

Sequence: FEDTLYTVLHR [UNC13D_Y61_A59T_YF]
Screen [1, 6]: -0.1643
Screen [5, 10]: -0.9596
Screen (variant relative to reference peptide, measured in the pTyr-Var library screen) [4]: -0.7483
Screen [2, 9]: -1.461

Sequence: FQEPVYSVAFS [TBL1X_Y509_H504Y_YF]
Screen [1, 6]: -0.2752
Screen [5, 10]: -0.4973
Screen (variant relative to reference peptide, measured in the pTyr-Var library screen) [4]: -0.4923
Screen [2, 7]: -0.3359

Sequence: FSMGCYEISLE [HMGCL_Y198_G203E_YF]
Screen [1, 13]: -0.09414
Screen [5, 11]: -0.6623

Sequence: GHEFIYVDRMQ [PDGFRB_Y581_P584R_YF]
Screen [1, 6]: -0.3711
Screen [5, 11]: -2.31
Screen [4]: -3.432
Screen [2, 7]: -3.317

Sequence: GLIPAYHWVIM [NMNAT1_Y64_R66W]
Screen [5, 11]: 3.48

Sequence: GREFIYVDPMQ [PDGFRA_Y574_H570R_YF]
Screen [1, 6]: -0.9351
Screen [5, 11]: -1.733
Screen [4]: -0.6275
Screen [2, 7]: -0.4123

Sequence: GRIHSYRGHLW [VHL_Y112_R107G]
Screen [1, 6]: -3.383
Screen (variant relative to reference peptide, measured in the pTyr-Var library screen) [4]: -1.934

Sequence: HNLNFYKKTTN [FGFR3_Y648_D646N_YF]
Screen [1, 13]: -1.956
Screen [5, 11]: -1.085
Screen [4]: -1.233
Screen [2, 7]: -1.314

Sequence: HSSPVYVGRVV [TGM2_Y219_R214H]
Screen [1, 6]: 0.1113
Screen [5, 10]: 0.4894
Screen (variant relative to reference peptide, measured in the pTyr-Var library screen) [4]: 1.553

Sequence: IFLGAYDRFLP [SLC22A5_Y486_V481I_YF]
Screen [1, 6]: -0.1658
Screen [2, 7]: -0.2361

Sequence: IVEELYAIPPD [PEAK1_Y797_S792I]
Screen [1, 6]: -0.02431
Screen [5, 11]: 0.2222
Screen [4]: 0.4436
Screen [2, 7]: -0.0205

Sequence: KGEDFYCVTFH [FHL1_Y149_C153Y_YF]
Screen [3, 12]: -1.856
Screen [5, 11]: 1.626

Sequence: LEHCQYVTQKV [ALDOB_Y204_E207Q]
Screen [5, 11]: -1.432
Screen [4]: -0.6551
Screen [2, 7]: -0.3412

Sequence: LGKGSYAKVRS [TSSK2_Y23_K27R]
Screen [3, 8]: 0.9991
Screen [1, 6]: -0.7681

Sequence: LITTLYIGFLD [KCNQ1_Y267_G272D]
Screen [1, 13]: 0.3249
Screen [5, 11]: 0.7229

Sequence: LNSFIYSLRNR [OR1A1_Y288_P285S]
Screen [3, 12]: 0.03527
Screen [1, 6]: 0.8467

Sequence: LTDTVYSSSSA [OR4C12_Y71_I67T]
Screen [1, 6]: -0.5241
Screen [5, 11]: 0.3207

Sequence: MKNDLYQTPLH [NFKB1_Y582_R578K]
Screen [1, 6]: -0.3133
Screen [5, 11]: -0.9562
Screen [2, 7]: -1.089

Sequence: NHFKIYNPCAE [PTEN_Y68_L70P_YF]
Screen [3, 12]: 0.7094
Screen [1, 6]: -2.716

Sequence: NTGFFYDLFGG [PTPN11_Y63_D61Y_YF]
Screen [1, 6]: -0.6353
Screen [5, 10]: -1.238

Sequence: NTGNFYDLFGG [PTPN11_Y63_D61N_YF]
Screen [1, 6]: 0.1419
Screen [5, 11]: 0.7498

Sequence: PLDGEYFTRQI [TP53_Y327_L330R]
Screen [3, 8]: 1.752
Screen [1, 6]: -2.245

Sequence: PMDGEYFTLQI [TP53_Y327_L323M]
Screen [1, 6]: 0.4461
Screen [5, 10]: 0.4582

Sequence: QNTGVYFDLFG [PTPN11_Y62_D61V_YF]
Screen [3, 12]: 0.3099
Screen [1, 6]: 0.4058
Screen [4]: -3.507
Screen [2, 7]: -4.12

Sequence: RAMPVYEKAEH [TP63_Y231_K232E]
Screen [5, 10]: 2.795

Sequence: REHTVYWEPRK [MAGEA4_Y240_G241W]
Screen [1, 13]: 1.621
Screen [4]: 3.741

Sequence: RRIHCYRGHLW [VHL_Y112_S111C]
Screen [1, 6]: -2.571
Screen (variant relative to reference peptide, measured in the pTyr-Var library screen) [4]: -1.56

Sequence: RRIHNYRGHLW [VHL_Y112_S111N]
Screen [1, 6]: -2.675
Screen (variant relative to reference peptide, measured in the pTyr-Var library screen) [4]: -1.094

Sequence: SEEVNYATLTF [CLEC12B_Y7_T6N]
Screen [3, 12]: 1.648
Screen [1, 13]: -1.881
Screen [5, 11]: -0.6417
Screen [4]: 0.955

Sequence: TAGFIYEKWEI [TEC_Y360_S359I]
Screen [1, 6]: 3.208
Screen [5, 10]: 3.032

Sequence: TSPALYRLDLD [TRIL_Y352_A347T]
Screen [3, 8]: -0.2355
Screen [1, 6]: -0.36

Sequence: VEDQFYRVDCF [FHL1_Y208_C209R_YF]
Screen [3, 12]: 0.3405
Screen [1, 13]: -0.6364

Sequence: VNFGAYINDFN [GLB1_Y488_K493N_YF]
Screen [3, 12]: 0.7194

Sequence: VQQVIYATRAL [MYH7_Y422_G425R]
Screen [3, 12]: -0.009809
Screen [1, 6]: 0.27

Sequence: VTAALYGCLFE [BTD_Y536_R538C_YF]
Screen [3, 12]: -0.06766
Screen [1, 13]: -0.3028

Sequence: WSFNLYDINKD [KCNIP3_Y174_A170S]
Screen [1, 13]: -1.011
Screen [5, 11]: -0.8483
Screen [2, 7]: -1.005

More lines, now with the values ahead:

Screen [2, 7]: -1.178
Sequence: ADELEYSRTGL [MMUT_Y287_G284E]

Screen [2, 7]: -1.172
Sequence: ADGLEYSRTEL [MMUT_Y287_G291E]

Screen [3, 8]: -2.008
Screen (variant relative to reference peptide, measured in the pTyr-Var library screen) [4]: -0.006784
Screen [2, 9]: -0.4918
Sequence: ATKNDYWAMLA [WWOX_Y287_P282A]

Screen [5, 11]: 1.727
Sequence: CLNAIYQNNLT [GSR_Y158_R153C]

Screen [4]: 0.9285
Sequence: CPFNLYAEQFS [HGD_Y40_L44F_YF]

Screen [3, 12]: 2.263
Screen [5, 11]: 0.4614
Screen [4]: -0.1732
Sequence: FPLELYERVRI [PRKCG_Y312_M317I_YF]

Screen [5, 11]: 1.926
Sequence: GLCSFYETSKM [MAGED2_Y449_R446C_YF]

Screen [2, 7]: 2.27
Sequence: HHIDFYKETTN [FGFR1_Y654_K656E_YF]

Screen [4]: -0.7312
Sequence: HSVLNYGVCVC [JAK2_Y613_L609S]

Screen [5, 11]: -0.04574
Sequence: IRRIAYEFVEM [ADA_Y84_K80R]

Screen [5, 11]: -0.8729
Screen [4]: -0.623
Sequence: KKHIPYKEHKS [CSNK1G1_Y205_R206K]

Screen [5, 11]: -0.5331
Screen [2, 7]: -0.9058
Sequence: KNEIFYQCPDQ [FBXO3_Y223_V221I]

Screen (variant relative to reference peptide, measured in the pTyr-Var library screen) [4]: -0.2971
Screen [2, 7]: -0.9717
Sequence: KSNSDYVDVLP [SH2D1B_Y127_N122K]

Screen (variant relative to reference peptide, measured in the pTyr-Var library screen) [4]: 1.182
Sequence: LANNEYFFQVC [TTN_Y18997_R19000Q_YF]

Screen [4]: -1.664
Screen [2, 7]: -0.9482
Sequence: LFEDHYLLGTS [ASS1_Y87_R86H_YF]

Screen (variant relative to reference peptide, measured in the pTyr-Var library screen) [4]: 0.8704
Sequence: MGSFNYLGFPR [SPTLC2_Y178_A182P_YF]

Screen [4]: -1.134
Sequence: PAGSGYPAFLG [ATP6V1A_Y374_D371G_YF]

Screen [4]: 0.9471
Sequence: PEADKYHLTFA [FGG_Y300_R301H_YF]

Screen [5, 11]: -1.474
Sequence: PFSNSYENSLI [EPOR_Y489_P488S_YF]

Screen [4]: 0.9985
Sequence: QEGPEYWDLET [HLA-A_Y83_Q86L]

Screen [3, 12]: -1.654
Sequence: QHVPDYRQNGF [PCDHGB6_Y889_V893G_YF]

Screen [3, 8]: 2.193
Sequence: QLLIEYPPEEV [ZZZ3_Y670_K669E]

Screen [5, 11]: -0.3574
Sequence: QRRFLYFFSFL [PTEN_Y176_V175L_YF]

Screen [3, 12]: 1.984
Sequence: QRRLIYRCQVG [NR2E3_Y81_R76Q]

Screen [3, 12]: 1.153
Sequence: QRRLVYFERGA [RYR1_Y245_G248R_YF]

Screen [3, 12]: 0.5424
Sequence: REGAKYVSHGT [ASS1_Y113_A118T]

Screen [3, 12]: 1.189
Sequence: RNGDRYFKEIV [DCX_Y64_G67E]

Screen [3, 8]: -0.62
Sequence: SGLDSYVRSLP [TRAPPC1_Y133_R129G]

Screen [4]: -2.179
Screen [2, 7]: -2.162
Sequence: SISFDYCRVPM [BST2_Y8_T4I_YF]

Screen [3, 12]: -0.477
Sequence: SKNSKYNAGST [PSEN1_Y315_E318G]

Screen [3, 8]: -2.483
Screen [5, 10]: 0.6845
Sequence: SVCPDYDLCSI [SQSTM1_Y148_V153I]

Screen [3, 8]: 0.6095
Sequence: SVVVPYEPPEL [TP53_Y220_V225L]

Screen [3, 12]: -1.28
Sequence: TGQEDYDRLRP [RAC1_Y64_A59T]

Screen [3, 12]: 0.3272
Sequence: VFAANYFKLLG [ROR2_Y645_D644N_YF]

Screen [2, 7]: 0.813
Sequence: VFPIDYFFPPQ [AR_Y552_L548F_YF]

Screen [3, 8]: -1.867
Sequence: WANPEYTGGFK [TTN_Y22309_K22306N]

Source: publication PMC10065799, “High-throughput profiling of sequence recognition by tyrosine kinases and SH2 domains using bacterial peptide display” (eLife, 2023)
